Series [1] in a line: Histopathology of mice treated with cisplatin. In kind it is in vivo. From the text: Thus, histopathologic studies were requisite.
Two mice from each of these groups were necropsied at various times following cisplatin treatment. […] Tissues were fixed in 10% neutral buffered formalin, imbedded in paraffin, sectioned to 6-8μ and stained with hematoxylin and eosin.

Series [2] concerns Trypanosoma rhodesiense. The following applies: Kinnamon et al.; peanut oil vehicle; cited from earlier work.
Series [3] deals with Trypanosoma rhodesiense. The series is described as follows: 30-day survival and cure of Trypanosoma rhodesiense-infected mice treated with cisplatin. The class given is in vivo. The following applies: for cure, survival and damage on concurrent treatment: hydrated, trypanosome-infected mice, cisplatin and disulfiram or diethyl dithiocarbamate. The procedure: Laboratory animals of diverse sorts have been employed in studies with trypanosomes. […] This method has been reported in detail: L. Rane, D. S. Rane, and K. E. Kinnamon, Am. J. Trop. Med. Hyg., 25, 395-400 (1976).
(§1) Anti-trypanosomal activity reported in this invention was determined according to the procedure outlined in the article of L. Rane, et al entitled "Screening Large Numbers of Compounds in a Model Based on Mortality of Trypanosoma rhodesiense Infected Mice," The American Journal of Tropical Medicine and Hygiene, Volume 25, No. 3, pages 395-400 ([…]). To summarize, however, experiments were conducted with the Wellcome CT strain of Trypanosoma rhodesiense originally isolated in 1934. The test system is patterned after the one developed and employed in testing of compounds for activity against Plasmodium berghei malaria [see Osdene, et al, New Series of Potential Antimalarial Agents, J. Med. Chem., 10, 431-434 (1967)]. The test system is based on comparisons of responses to test compounds by ICR/HA Swiss mice infected with the strain as expressed in mean survival times compared with mean survival times of untreated controls.
Test mice (of similar age were females and 21 to 25 grams in weight) received an intraperitoneal injection of 0.5 ml of a 1:50,000 dilution of heparinized heart blood drawn from donor mice infected with Trypanosoma rhodesiense 3 days earlier.
Deaths prior to the fourth day (when untreated controls begin to die) were regarded as not related to the infection and were scored as "toxic deaths." Treated animals were kept under observation for 30 days. Parasitemias were monitored by thick blood film smears (taken from tail veins of the mice) every 2 days for the 30-day course of the experiment. Survivors at the end of 30 days were considered cured. […] In calculating mean survival times, toxic deaths and 30 day survivors were not included.
(§2) All groups included 10 mice except where indicated. Therapy was 3 mg/kg
trypanosomes and subsequently given intraperitoneally for number of days
indicated in first column. Disulfiram (250 mg/kgorally) was given exactly
physiologic saline given subcutaneously four times per day. Survival is
given as % survival 30 days following initial therapy.

The test system of series [4] is Trypanosoma rhodesiense. The series is described as follows: Subinoculation of tissues (blood, heart, brain) of cured mice into healthy recipient mice. The class given is in vivo, Trypanosoma rhodesiense in mice. As to conditions: donors: cisplatin with hydration plus disulfiram. An excerpt: The considerable and complex nature of problems in various developing countries of tropical Africa have been worsened by the increasing incidents of trypanosomiasis. Drugs for the management of this highly fatal infection have been generally inadequate or/and highly toxic to the victim. The present invention relates to a novel means for alleviating the toxic effects of an agent useful in the treatment of highly fatal trypanosome infections in animals. […] However, cures have been achieved safely by concurrent hydration of the animals and oral dosing with disulfiram. This procedure was firmly established as affording parasitologic cures of the experimental animals by subinoculation of tissues (blood, brain, heart) into recipient mice from mice cured of trypanosomiasis in accordance with the method of this invention.
Some animals suffered relapses 6 to 14 days after the last doses. […] All survivors at 30 days were sacrificed, and tissues (blood; heart; brain) subinoculated into healthy mice. […] Thus, no latent trypanosomes had survived the therapy.

The subject of series [5] is Trypanosoma rhodesiense. Description: Parasitemia in infected mice, monitored by thick blood film smears. In kind it is in vivo. The protocol:
as §1
By using a standard inoculum of 1×10^6 trypanosomes, it was possible to produce a uniform disease fatal to 100% of untreated animals within four to six days, with a mean survival time of 4.45±0.24 days. Test mice (of similar age were females and 21 to 25 grams in weight) received an intraperitoneal injection of 0.5 ml of a 1:50,000 dilution of heparinized heart blood drawn from donor mice infected with Trypanosoma rhodesiense 3 days earlier.
Deaths prior to the fourth day (when untreated controls begin to die) were regarded as not related to the infection and were scored as "toxic deaths." Treated animals were kept under observation for 30 days. Parasitemias were monitored by thick blood film smears (taken from tail veins of the mice) every 2 days for the 30-day course of the experiment. Survivors at the end of 30 days were considered cured. An increase of 100% in mean survival time over control animals was considered as a minimum effective response. In calculating mean survival times, toxic deaths and 30 day survivors were not included.
The therapeutic regimen was that described in Examples 1 through 3.

A short description of series [6]: 30-day survival of uninfected (healthy) mice treated with cisplatin, with or without hydration and disulfiram. The class given is in vivo. The procedure:
Ten animals were used in each of three test procedures for the three regimens of drug dosing. The test procedures included: no hydration of mice; hydration of mice; and hydration plus disulfiram administration to the animals.
as §2
indicated. Disulfiram (250 mg/kgorally) was given exactly four hours
Hydration was 3 ml of physiologic saline
given subcutaneously four times per day. Survival is given as % survival
30 days following initial therapy.
^a Average survival from four experiments with 10 mice per experiment

The mark [7] stands for this setting: mice treated with cisplatin alone.
[8] abbreviates: no hydration, 3 mg/kg/day i.p., 7 days.
Setting [9] is: with hydration, 3 mg/kg/day i.p., 7 days.
[10] abbreviates: hydration + disulfiram, cisplatin 3 mg/kg/day, 6 days.
The mark [11] stands for this setting: with hydration, 3 mg/kg/day, 6 days.

Entries after “also recorded” stand apart in the source; their conditions may differ.

`N.N.[Cl][Pt][Cl]` [Cisplatin, cis-diamminedichloroplatinum (II)]: the renal cortex findings result in series [1] (cisplatin alone, necropsied on day 18 or later) was “multifocal accumulations of lymphoplasmacytic inflammatory cells with areas of tubular regeneration”. The early renal lesions entry in series [1] (setting [7]) was “acute proximal and distal tubular necrosis”. The “lesions other than renal” value in series [1] (setting [7]) is “colonic and jejunal enteritis, and interstitial pneumonia with edema and vascular congestion”. Moreover, the “renal lesions (frequency)” value in series [1] (setting [7]) was “highly common”. Besides, the “anti-trypanosomal effects in prior work” value in series [2] is on record as “anti-trypanosomal effects at dose levels which were unsuitably toxic to the test animals”. For the same compound, the “curative effects on Trypanosoma rhodesiense infections” value in series [3] (3 mg/kg/day for 7 days) is reported as “does exert curative effects”. Further, in series [3], the “cure, survival and damage on concurrent treatment” value (from here on “cure, survival and damage”) was “effected cures of the infection with very good survival and little damage to test animals”. Further, the “30-Day survival of trypanosome-infected mice” value in series [3] (hydration + disulfiram (250 mg/kg orally), cisplatin 3 mg/kg/day i.p., 6 days, average of four experiments) is 62.5%; in series [3] (setting [8]), 0%; in series [3] (setting [9]) it was 57%. Besides, the “cure of Trypanosoma rhodesiense infection” value in series [3] (hydration plus disulfiram, cisplatin 3 mg/kg daily for seven days) is “effective in curing mice; also recorded: fully curative, and not merely palliative”; in series [3] (with hydration, 7-day regimen), “effective in curing mice”. For the same compound, in series [4], the “trypanosome infection in recipient mice after subinoculation of tissues of survivors” value is listed as “did not produce the trypanosomiasis in the recipient mice; also recorded: No recipient mice developed trypanosome infection”. In addition, the “clearance of trypanosomes from bloodstream” value in series [5] (cisplatin alone, 3 mg/kg/day, 5 days) was “failed to clear the bloodstream of trypanosomes”. Besides, the “clearance of trypanosomes from blood” value was “temporarily cleared of trypanosomes; also recorded: Blood of all mice was cleared of trypanosones” in series [5] (setting [10]); “Blood of all mice was cleared of trypanosones” in series [5] (no hydration, 3 mg/kg/day, 7 days); “Blood of all mice was cleared of trypanosones” in series [5] (setting [11]); “Blood of all mice was cleared of trypanosones” in series [5] (with hydration, 3 mg/kg/day, 7 days). Further, the figures for the relapse of parasitemia result in series [5] (setting [10]) and in series [5] (setting [11]) were “relapses of parasitemia occurred; also recorded: Relapse of parasitemia” and “Relapse of parasitemia”, respectively. Moreover, the “time of relapse after the last doses” value in series [5] (some animals, hydration + disulfiram, cisplatin 6 daily doses) was in the range of 6 to 14 days. In addition, the 30-Day survival is 100% in series [6] (hydration + disulfiram (250 mg/kg orally), cisplatin 3 mg/kg/day i.p., 6 days); 100% in series [6] (hydration + disulfiram (250 mg/kg orally), cisplatin 3 mg/kg/day i.p., 7 days, average of four experiments); 100% in series [6] (no hydration, 3 mg/kg/day i.p., 5 days); 10% in series [6] (no hydration, 3 mg/kg/day i.p., 6 days); 0% in series [6] (setting [8]); 100% in series [6] (with hydration, 3 mg/kg/day i.p., 6 days). Also, the 30-Day survival in series [6] (setting [9]) is given as 90%. In series [6] (hydration with or without disulfiram), the “mortality from cisplatin administration” value was “ameliorated by hydration, with or without use of disulfiram”.

Consider `CCN(CC)C(=S)SSC(=S)N(CC)CC` [Disulfiram, bis-(diethylthiocarbamoyl) disulfide], for which, in series [1] (oral disulfiram given with cisplatin), the “protection from toxic effects of cisplatin” value was “protected the kidneys and gastrointestinal tracts from the toxic effects”. For the same compound, in series [3] (disulfiram alone, model test system), the “anti-trypanosomal activity of disulfiram alone” value is “lack anti-trypanosomal activity”. In addition, the “cure, survival and damage” value in series [3] was “effected cures of the infection with very good survival and little damage to test animals”.

As to `CCN(CC)C(=S)S` [diethyl dithiocarbamate], the “cure, survival and damage” value in series [3] is “effected cures of the infection with very good survival and little damage to test animals”.

The values are drawn from patent US4532122A, “Anti-trypanosomal activity of platinum co-ordination compounds” (The United States of America as represented by the …, priority 1981, dated 1985).
